# Results taken from patent US11084783B2, “O-alkyl-benzylideneguanidine derivatives and therapeutic use for the treatment of disorders associated with an accumulation of misfolded proteins” (INFLECTIS BIOSCIENCE, priority 2014, dated 2021).
# What was measured:
# [1] = tested on: HeLa cells; assay: Cytoprotection from ER stress (tunicamycin), cell viability by WST-8; format: cell-based; parameters: key to Cytoprotection from ER stress compared to guanabenz: +: lower cytoprotective effect compared to Guanabenz; ++: similar cytoprotective effect compared to Guanabenz; +++: higher cytoprotective effect compared to Guanabenz; details: HeLa cells, 6 hour exposure to tunicamycin 5 μg/mL, compounds 0.5-10 μM, viability 48 h or 72 h
# Excerpt: Cytoprotection against ER stress can be measured by a suitable assay. For example, cytoprotection can be measured in HeLa cells in which ER stress is elicited by the addition of media containing tunicamycin, a mixture of homologous nucleoside antibiotics that inhibits the UDP-HexNAc: polyprenol-P HexNAc-1-P family of enzymes and is used to induce unfolded protein response. Cell viability can be detected in the presence and absence of inhibitor compounds after a set period of time, by measuring the reduction of WST-8 into formazan using a standard cell viability kit (such as Cell Viability Counting Kit-8 from Dojindo). Cytoprotection from ER stress is measured in terms of the percentage increase in viable cells (relative to control) after ER stress. Further details of a suitable assay are set forth in the accompanying Examples section.
# This assay is described in Tsaytler et al. (Science 2011). HeLa Cells were cultured in Eagle's Minimum Essential Medium (EMEM) supplemented with Glutamine, Sodium Pyruvate, Non-Essential Amino Acids, Penicillin and Streptomycin containing 10% Foetal Bovine Serum (FBS), at 37° C. in 5% CO2 atmosphere. Cells were plated in 96 well plates at a density of 17,000 cells/mL the day before the treatment. ER stress was elicited by addition of 5 μg/mL tunicamycin (Sigma-Aldrich) together with PPP1R15A inhibitors (0.5-10 μM). Media were changed 6h later with fresh media and the cytoprotection was maintained by the addition of PPP1R15A inhibitors (0.5-10 μM). Cell viability was assessed by measuring the reduction of WST-8 into formazan using Cell Counting Kit-8 (Sigma) according to the supplier's recommendation, 48 h or 72h after tunicamycin treatment. Cytoprotection from ER stress is measured in terms of cytoprotective potency effect compared to the reference compound Guanabenz (Tsaytler et al., Science 2011) after ER stress: • ‘+’ no cytoprotective effect; • ‘+’ lower cytoprotective effect compared to Guanabenz; • ‘++’ similar cytoprotective effect compared to Guanabenz; • ‘+++’ higher cytoprotective effect compared to Guanabenz.
# Table 1 summarizes the results of cytoprotective effect of different compounds of the invention, compared to guanabenz, after the stress induced by a 6 hour exposure of tunicamycin.
# [2] = molecular target: T1, human alpha2A receptor (Homo sapiens, UniProt P08913); assay: Functional GPCR assay for adrenergic α2A receptor (CellKey detection method); format: cell-based; details: agonist activity, CHO cells expressing human alpha2A receptor, impedance (CellKey); read-out: Functional adrenergic alpha2 receptor assay EC50
# T1 construct: CHO cells endogenously expressing human alpha2A receptor; endogenous in cells; host or cells: CHO cells
# T1 sequence (P08913 1-465): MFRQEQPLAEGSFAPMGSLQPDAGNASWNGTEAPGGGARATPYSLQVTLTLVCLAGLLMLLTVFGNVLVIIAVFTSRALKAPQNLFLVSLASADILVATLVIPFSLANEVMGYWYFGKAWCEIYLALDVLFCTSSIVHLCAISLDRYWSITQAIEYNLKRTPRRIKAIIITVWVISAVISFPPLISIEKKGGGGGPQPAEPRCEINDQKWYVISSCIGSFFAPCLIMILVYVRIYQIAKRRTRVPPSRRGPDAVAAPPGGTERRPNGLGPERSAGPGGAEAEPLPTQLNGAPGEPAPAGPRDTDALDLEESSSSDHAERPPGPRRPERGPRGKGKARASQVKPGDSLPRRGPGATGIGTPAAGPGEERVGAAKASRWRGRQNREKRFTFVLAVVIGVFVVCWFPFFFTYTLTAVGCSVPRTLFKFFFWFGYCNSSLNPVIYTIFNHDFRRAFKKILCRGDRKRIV
# Protocol: The agonist activity of compounds was evaluated on CHO cells […] expressing human alpha2A receptor and was determined by measuring their effects on impedance modulation using the CellKey detection method. Cells were seeded onto 96-well plate at density of 6×10^4 cells/well in HBSS buffer (Invitrogen)+20 mM HEPES (Invitrogen) with 0.1% BSA and are allowed to equilibrate for 60 min at 28° C. before the start of the experiment. Plates were placed onto the system and measurements were made at a temperature of 28° C. Solutions were added simultaneously to all 96 wells using an integrated fluidics system: HBSS (basal control), reference agonist at 100 nM (stimulated control), reference agonist (EC50 determination) or the test compounds. Impedance measurements are monitored for 10 minutes after ligand addition. The standard reference agonist is epinephrine, which is tested in each experiment at several concentrations to generate a concentration-response curve from which its EC50 value is calculated.
# Dose-response data from test compounds were analysed with Hill software using non-linear regression analysis of the concentration-response curves generated with mean replicate values using Hill equation curve fitting.
# [3] = tested on: mouse embryonic fibroblasts lipofected with poly I:C; assay: In vitro inflammation/infection model: poly I:C induced mouse embryonic fibroblasts; format: cell-based; details: 25 μM, 6h, IFN-beta ELISA in culture supernatants
# Protocol: Mouse Embryonic Fibroblasts (MEFs) were lipofected with poly I:C and treated with […] compounds of the invention (25 μM) for 6h. After 6h of culture, elF2alpha-phosphorylation (elF2a-P) and PPP1R15A (GADD34) expression was monitored by western blotting, while type-1 Interferon(IFN)-beta production was quantified in culture supernatants by ELISA. Control (nt) and poly I:C/DMSO are respectively negative and positive controls. Poly I:C (polyinosinic:polycytidylic acid or polyinosinic-polycytidylic acid sodium salt) is an immunostimulant used to simulate viral infections. Poly I:C which is structurally similar to double-stranded RNA, is known to interact with toll-like receptor 3 which is expressed in the intracellular compartments of B-cells and dendritic cells. Guanabenz (25 μM) was used as reference inhibitory compound.
# MEFs were cultured in DMEM, 10% FCS (HyClone, Perbio), 100 units/ml penicillin, 100 μg/ml streptomycin, 2 mM glutamine, 1× MEM non-essential amino acids and 50 μM 2-mercaptoethanol. MEFS were treated for the indicated time with 10 μg/ml poly I:C (InvivoGen) in combination with lipofectamine 2000 (Invitrogen).
# Cells were lysed in 1% Triton X-100, 50 mM Hepes, 10 mM NaCl, 2.5 mM MgCl2, 2 mM EDTA, 10% glycerol, supplemented with Complete Mini Protease Inhibitor Cocktail Tablets (Roche). Protein quantification was performed using the BCA Protein Assay (Pierce). 25-50 μg of Triton X-100-soluble material was loaded on 2%-12% gradient or 8% SDS-PAGE before immunoblotting and chemi-luminescence detection (SuperSignal West Pico Chemi-luminescent Substrate, Pierce). Rabbit polyclonal antibodies recognizing GADD34 (C-19) were from Santa Cruz Biotechnology and anti-elF2alpha[pS^52] were from Invitrogen.
# IFN-beta quantification in culture supernatant was performed using the Mouse Interferon Beta ELISA kit (PBL Interferon Source) according to manufacturer instructions.
# Normal response of MEFs to poly I:C is characterized by PPP1R15A expression, increase in elF2alpha-P (variable in time and related to the levels PPP1R15A expression) mediated by PKR activation and type-I IFN production (range 500 to 700 pg/ml). Knock out PPP1R15A MEFs are unable to produce this cytokine in response to poly I:C.
# The potency of compounds of the invention to inhibit PPP1R15A was evaluated by measuring the increase of elF2alpha phosphorylation, the decrease of PPP1R15A expression due to its own pharmacological inhibition resulting in general protein synthesis inhibition and type-I IFN production.
# [4] = tested on: HeLa cells; details: tunicamycin; Tsaytler et al., Science 2011; read-out: median effective concentration, survival of HeLa cells exposed to ER stress; cited from earlier work
# [5] = tested on: rotenone injured primary mesencephalic rat neurons; assay: In vitro Parkinson's disease model: rotenone injured primary mesencephalic rat neurons; format: cell-based; details: rotenone 10 nM, 24 hours; total number of TH positive neurons
# Protocol: Rat dopaminergic neurons were cultured as described by Schinelli et al., (1988 J. Neurochem 50 pp1900-07) and Visanji et al., (2008 FASEB J. 22(7) pp2488-97). Briefly, the midbrains obtained from 15-day old rat embryos (Janvier Labs, France) were dissected under a microscope. The embryonic midbrains were removed and placed in ice-cold medium of Leibovitz (L15, Pan Biotech, Batch: 9310614) containing 2% of Penicillin-Streptomycin (PS, Pan Biotech, Batch: 1451013) and 1% of bovine serum albumin (BSA, Pan Biotech, Batch: h140603). The ventral portion of the mesencephalic flexure, a region of the developing brain rich in dopaminergic neurons, was used for the cell preparations.
# The midbrains were dissociated by trypsinisation for 20 min at 37° C. (Trypsin 0.05% EDTA 0.02%, PanBiotech, Batch: 5890314). The reaction was stopped by the addition of Dulbecco's modified Eagle's medium (DMEM, PanBiotech, Batch: 1300714) containing DNAase I grade II (0.1 mg/ml, PanBiotech, Batch: H140508) and 10% of foetal calf serum (FCS, Gibco, Batch: 41Q7218K). Cells were then mechanically dissociated by 3 passages through a 10 ml pipette. Cells were then centrifuged at 180×g for 10 min at +4° C. on a layer of BSA (3.5%) in L15 medium. The supernatant was discarded and the cell pellets were re-suspended in a defined culture medium consisting of Neurobasal (Invitrogen, Batch: 1636133) supplemented with B27 (2%, Invitrogen, Batch: 1660670), L-glutamine (2 mM, PanBiotech, Batch: 8150713) and 2% of PS solution and 10 ng/ml of Brain-derived neurotrophic factor (BDNF, PanBiotech, Batch: H140108) and 1 ng/ml of Glial-Derived Neurotrophic Factor (GDNF, Pan Biotech, Batch: H130917). Viable cells were counted in a Neubauer cytometer using the trypan blue exclusion test. The cells were seeded at a density of 40 000 cells/well in 96 well-plates pre-coated with poly-L-lysine (Corning Biocoat, Batch: 6614022) and maintained in a humidified incubator at 37° C. in 5% CO2/95% air atmosphere. Half of the medium was changed every 2 days with fresh medium.
# On day 6 of culture, the medium was removed and fresh medium was added, without or with rotenone (Sigma, Batch: 021M2227V) at 10 nM diluted in control medium, 3 wells per condition were assessed. […]
# The immunolabeled cultures were automatically examined with ImageXpress (Molecular device USA). For each condition, 20 automatically fields per well (representing ˜80% of the total surface of the well) from 3 wells were analyzed. The total number of TH neurons was automatically analyzed using Custom module editor (Molecular Devices, USA). […] All values were expressed as mean +/−SEM (s.e. mean) of the 1 culture (n=3 wells per condition per culture).
EC50 [2],SMILES,Cytoprotection from ER stress compared to guanabenz [1],other results
,"CC(C)=CCONC(=N)N/N=C/c1ccccc1Cl [Compound 14, 2-(2-chlorobenzylidene)-N′-[(3-methylbut-2-en-1-yl)oxy]hydrazinecarboximidamide]",++,
> 33.3 µM,"N/C(=N\OCCO)N/N=C/c1ccccc1Cl [Compound 6, 2-(2-chlorobenzylidene)-N′-(2-hydroxyethoxy)hydrazinecarboximidamide]",++,prevention of type-I IFN production (FIG. 9) [3]: prevent type-I IFN production
,"NC(N)=N/N=C/c1c(Cl)cccc1Cl [guanabenz, 2-(2,6-dichlorobenzylidene)hydrazinecarboximidamide]",,EC50 [4]: ~400 nM
,"CCCO/N=C(\N)N/N=C/c1c(F)cccc1Cl [Compound 19, 2-(2-chloro-6-fluorobenzylidene)-N′-propoxyhydrazinecarboximidamide]",+++,
,"CCCO/N=C(\N)N/N=C/c1ccncc1Cl [Compound 23, 2-[(3-chloropyridin-4-yl)methylidene]-N-propoxyhydrazinecarboximidamide]",++,
> 33.3 µM,"CCOCCONC(=N)N/N=C/c1ccccc1Cl [Compound 13, 2-(2-chlorobenzylidene)-N-(2-ethoxyethoxy)hydrazinecarboximidamide]",++,
> 33.3 µM,"CCSCCONC(=N)N/N=C/c1ccccc1Cl [Compound 15, 2-(2-chlorobenzylidene)-N-[2-(ethylsulfanyl)ethoxy]hydrazinecarboximidamide]",++,
,"CCCO/N=C(\N)N/N=C/c1c(Cl)cccc1Cl [Compound 21, 2-(2,6-dichlorobenzylidene)-N-propoxyhydrazinecarboximidamide]",++,
,"C=CCO/N=C(\N)N/N=C/c1ccccc1Cl [Compound 5, 2-(2-chlorobenzylidene)-N′-(prop-2-en-1-yloxy)hydrazinecarboximidamide]",+,protection of rotenone injured primary mesencephalic rat neurons (FIG. 3) [5]: dose dependent protection
,"CS(=O)(=O)CCCO/N=C(\N)N/N=C/c1ccccc1Cl [Compound 4, 2-(2-chlorobenzylidene)-N′-[3-(methylsulfonyl)propoxy]hydrazinecarboximidamide]",++,
